Counter-ions that a name gives are not always drawn.
These molecules were tested against T1, human ALX receptor (Homo sapiens, UniProt P25090) (assay: Intracellular calcium measurements (FLIPR) in HEK293-hALXR-Gα16 cells, agonistic activity). Details: values normalized to WKYMVm 10 nM.
T1 construct: expressed in transfected cells; host or cells: HEK293 (HEK293-hALXR-Gα16)
T1 sequence (P25090 1-351): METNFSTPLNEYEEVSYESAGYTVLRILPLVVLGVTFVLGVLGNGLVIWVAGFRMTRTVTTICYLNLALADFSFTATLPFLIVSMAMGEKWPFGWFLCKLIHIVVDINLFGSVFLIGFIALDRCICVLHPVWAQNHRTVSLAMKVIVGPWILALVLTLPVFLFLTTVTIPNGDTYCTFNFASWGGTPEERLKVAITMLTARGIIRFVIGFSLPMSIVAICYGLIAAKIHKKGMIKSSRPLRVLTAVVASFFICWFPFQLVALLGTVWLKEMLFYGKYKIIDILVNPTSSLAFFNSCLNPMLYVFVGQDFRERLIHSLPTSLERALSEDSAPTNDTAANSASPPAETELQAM
Assay type: cell-based
Experimental: The ALX receptor and FPRL2 agonistic activities of the compounds of formula (I) are determined in accordance with the following experimental method.
Intracellular Calcium Measurements:
Cells expressing recombinant human ALX receptor and the G-protein Gα16 (HEK293-hALXR-Gα16) were grown to 80% confluency in Growing Medium (GM). Cells were detached from culture dishes with a cell dissociation buffer (Invitrogen, 13151-014), and collected by centrifugation at 1,000 rpm at rt for 5 min in Assay Buffer (AB) (equal parts of Hank's BSS (Gibco, 14065-049) and DMEM without Phenol Red (Gibco, 11880-028)). After 60 min incubation at 37° C. under 5% CO2 in AB supplemented with 1 μM Fluo-4 (AM) (Invitrogen, F14202), and 20 mM HEPES (Gibco, 15630-056), the cells were washed and resuspended in AB. They were then seeded onto 384-well FLIPR assay plates (Greiner, 781091) at 50,000 cells in 70 μl per well and sedimented by centrifugation at 1,000 rpm for 1 min. Stock solutions of test compounds were made up at a concentration of 10 mM in DMSO, and serially diluted in AB to concentrations required for activation dose response curves. WKYMVm (Phoenix Peptides) was used as a reference agonist. FLIPR384 or FLIPR Tetra instruments (Molecular Devices) were operated according to the manufacturer's standard instructions, adding 4 μl of test compound dissolved at 10 mM in DMSO and diluted prior to the experiment in assay buffer to obtain the desired final concentration. Changes in fluorescence were monitored before and after the addition of test compounds at lex=488 nm and lem=540 nm. Emission peak values above base level after compounds addition were exported after base line subtraction. Values were normalized to high-level control (WKYMVm compound, 10 nM final concentration) after subtraction of the base line value (AB addition).

Compound	EC50
Cc1cc(CNC(=O)[C@H]2[C@H](C(=O)OCC3(F)CCNCC3)[C@H]3CC[C@@H]2C32CC2)no1 [Example 59, (1S,2R,3R,4R)-[(4-Fluoro-piperidin-4-yl)methyl 2-(((5-methylisoxazol-3-yl)methyl)carbamoyl)spiro[bicyclo[2.2.1]heptane-7,1′-cyclopropane]-3-carboxylate]]	41.4 nM
Cc1cc(CNC(=O)[C@H]2[C@H](C(=O)OCCN3CCNCC3)[C@H]3CC[C@@H]2C32CC2)no1 [Example 63, (1S,2R,3R,4R)-[2-(piperazin-1-yl)ethyl 2-(((5-methylisoxazol-3-yl)methyl)carbamoyl)spiro[bicyclo[2.2.1]heptane-7,1′-cyclopropane]-3-carboxylate]]	79 nM
O=C(OCCCC(=O)N1CCCC1)[C@H]1[C@H](C(=O)Nc2ccc(Br)nc2)[C@@H]2CC[C@H]1C21CC1 [Example 67, (1S,2R,3R,4R)-[(4-Pyrrolidino-4-oxobutyl) 2-((6-bromopyridin-3-yl)carbamoyl)spiro[bicyclo[2.2.1]heptane-7,1′-cyclopropane]-3-carboxylate]]	125 nM
CN1CCC(OC(=O)[C@H]2[C@H](C(=O)Nc3ccc(Br)nc3)[C@@H]3CC[C@H]2C32CC2)CC1 [Example 6, (1S,2R,3R,4R)-[1-Methylpiperidin-4-yl 2-((6-bromopyridin-3-yl)carbamoyl)spiro[bicyclo[2.2.1]heptane-7,1′-cyclopropane]-3-carboxylate]]	257 nM
O=C(OCCOCCN1CCCC1)[C@H]1[C@H](C(=O)Nc2ccc(Br)nc2)[C@@H]2CC[C@H]1C21CC1 [Example 31, (1S,2R,3R,4R)-[2-(2-(Pyrrolidin-1-yl)ethoxy)ethyl 2-((6-bromopyridin-3-yl)carbamoyl)spiro[bicyclo[2.2.1]heptane-7,1′-cyclopropane]-3-carboxylate]]	2.2 nM
O=C(OCCCC(F)(F)CN1CCCC1)[C@H]1[C@H](C(=O)Nc2ccc(Br)nc2)[C@@H]2CC[C@H]1C21CC1 [Example 78, (1S,2R,3R,4R)-[(4,4-Difluoro-5-(pyrrolidin-1-yl))pent-1-yl 2-((6-bromopyridin-3-yl)carbamoyl)spiro[bicyclo[2.2.1]heptane-7,1′-cyclopropane]-3-carboxylate]]	3740 nM
CN1C(C)(C)CC(OC(=O)[C@H]2[C@H](C(=O)Nc3ccc(Br)nc3)[C@@H]3CC[C@H]2C32CC2)CC1(C)C [Example 8, (1S,2R,3R,4R)-[1,2,2,6,6-Pentamethylpiperidin-4-yl 2-((6-bromopyridin-3-yl)carbamoyl)spiro[bicyclo[2.2.1]heptane-7,1′-cyclopropane]-3-carboxylate]]	753 nM
O=C(OCCCCN1CC[C@H](F)C1)[C@H]1[C@H](C(=O)Nc2ccc(Br)nc2)[C@@H]2CC[C@H]1C21CC1 [Example 53, (1S,2R,3R,4R)-[(S)-4-(3-Fluoropyrrolidin-1-yl)butyl 2-((6-bromopyridin-3-yl)carbamoyl)spiro[bicyclo[2.2.1]heptane-7,1′-cyclopropane]-3-carboxylate]]	11.9 nM
Cc1cc(CNC(=O)[C@H]2[C@H](C(=O)OCC[C@@H]3CCCCN3)[C@H]3CC[C@@H]2C32CC2)no1 [Example 20, (1S,2R,3R,4R)-[(S)-2-(Piperidin-2-yl)ethyl 2-(((5-methylisoxazol-3-yl)methyl)carbamoyl)spiro[bicyclo[2.2.1]heptane-7,1′-cyclopropane]-3-carboxylate]hydrochloride]	118 nM
O=C(OCCN1CCNCC1)[C@H]1[C@H](C(=O)NCc2ccc(Br)cc2F)[C@@H]2CC[C@H]1C21CC1 [Example 71, (1S,2R,3R,4R)-[2-(piperazin-1-yl)ethyl 2-((4-bromo-2-fluorobenzyl)carbamoyl)spiro[bicyclo[2.2.1]heptane-7,1′-cyclopropane]-3-carboxylate]dihydrochloride]	162 nM
CC(CC(F)(F)CN1CCCC1)OC(=O)[C@H]1[C@H](C(=O)Nc2ccc(Br)nc2)[C@@H]2CC[C@H]1C21CC1 (stereo partly drawn) [Example 77, (1S,2R,3R,4R)-[(4,4-Difluoro-5-(pyrrolidin-1-yl))pent-2-yl 2-((6-bromopyridin-3-yl)carbamoyl)spiro[bicyclo[2.2.1]heptane-7,1′-cyclopropane]-3-carboxylate]]	1750 nM
O=C(OCCOCCN1CC[C@H](F)C1)[C@H]1[C@H](C(=O)NCc2ccc(Br)cc2F)[C@@H]2CC[C@H]1C21CC1 [Example 69, (1S,2R,3R,4R)-[(S)-2-(2-(3-Fluoropyrrolidin-1-yl)ethoxy)ethyl 2-((4-bromo-2-fluorobenzyl)carbamoyl)spiro[bicyclo[2.2.1]heptane-7,1′-cyclopropane]-3-carboxylate]]	145 nM
O=C(OC1CCN(Cc2ccccc2)CC1)[C@H]1[C@H](C(=O)Nc2ccc(Br)nc2)[C@@H]2CC[C@H]1C21CC1 [Example 76, (1S,2R,3R,4R)-[1-Benzyl-piperidin-4-yl 2-((6-bromopyridin-3-yl)carbamoyl)spiro[bicyclo[2.2.1]heptane-7,1′-cyclopropane]-3-carboxylate]]	2060 nM
O=C(OCCC1CCCNC1)[C@H]1[C@H](C(=O)Nc2ccc(Br)nc2)[C@@H]2CC[C@H]1C21CC1 (stereo partly drawn) [Example 10, (1S,2R,3R,4R)-[2-(Piperidin-3-yl)ethyl 2-((6-bromopyridin-3-yl)carbamoyl)spiro[bicyclo[2.2.1]heptane-7,1′-cyclopropane]-3-carboxylate]hydrochloride]	3.1 nM
O=C(OCCOCCN1CCCC1)[C@H]1[C@H](C(=O)NCc2ccc(Br)cc2F)[C@@H]2CC[C@H]1C21CC1 [Example 32, (1S,2R,3R,4R)-[2-(2-(Pyrrolidin-1-yl)ethoxy)ethyl 2-((4-bromo-2-fluorobenzyl)carbamoyl)spiro[bicyclo[2.2.1]heptane-7,1′-cyclopropane]-3-carboxylate]]	226 nM
O=C(Nc1ccc(Br)nc1)C1C(C(=O)OCC2CCNCC2)C2CCC1C21CC1 [Example 1, (1S,2R,3R,4R)-[Piperidin-4-ylmethyl 2-((6-bromopyridin-3-yl)carbamoyl)spiro[bicyclo[2.2.1]heptane-7,1′-cyclopropane]-3-carboxylate]]	8.1 nM
O=C(OC1CCCNC1)[C@H]1[C@H](C(=O)Nc2ccc(Br)nc2)[C@@H]2CC[C@H]1C21CC1 (stereo partly drawn) [Example 9, (1S,2R,3R,4R)-[Piperidin-3-yl 2-((6-bromopyridin-3-yl)carbamoyl)spiro[bicyclo[2.2.1]heptane-7,1′-cyclopropane]-3-carboxylate]hydrochloride]	2.5 nM
Cc1cc(CNC(=O)[C@H]2[C@H](C(=O)OC3CCCNC3)[C@H]3CC[C@@H]2C32CC2)no1 (stereo partly drawn) [Example 16, (1S,2R,3R,4R)-[Piperidin-3-yl 2-(((5-methylisoxazol-3-yl)methyl)carbamoyl)spiro[bicyclo[2.2.1]heptane-7,1′-cyclopropane]-3-carboxylate]hydrochloride]	53.7 nM
Cc1cc(CNC(=O)[C@H]2[C@H](C(=O)O[C@H]3CCNC[C@H]3F)[C@H]3CC[C@@H]2C32CC2)on1 (relative stereo) [Example 62, (1S,2R,3R,4R)-[cis-(3-Fluoro-piperidin-4-yl) 2-(((3-methylisoxazol-5-yl)methyl)carbamoyl)spiro[bicyclo[2.2.1]heptane-7,1′-cyclopropane]-3-carboxylate]]	77.5 nM
O=C(OCCC1(F)CCNCC1)[C@H]1[C@H](C(=O)Nc2ccc(Br)nc2)[C@@H]2CC[C@H]1C21CC1 [Example 40, (1S,2R,3R,4R)-[2-(4-Fluoro-piperidin-4-yl)ethyl 2-((6-bromopyridin-3-yl)carbamoyl)spiro[bicyclo[2.2.1]heptane-7,1′-cyclopropane]-3-carboxylate]]	4.6 nM
Cc1cc(CNC(=O)[C@H]2[C@H](C(=O)O[C@@H]3CCNC3)[C@H]3CC[C@@H]2C32CC2)no1 [Example 19, (1S,2R,3R,4R)-[(R)-Pyrrolidin-3-yl 2-(((5-methylisoxazol-3-yl)methyl)carbamoyl)spiro[bicyclo[2.2.1]heptane-7,1′-cyclopropane]-3-carboxylate]hydrochloride]	105 nM
Cc1cc(CNC(=O)[C@H]2[C@H](C(=O)OCCC3CCCNC3)[C@H]3CC[C@@H]2C32CC2)no1 (stereo partly drawn) [Example 17, (1S,2R,3R,4R)-[2-(Piperidin-3-yl)ethyl 2-(((5-methylisoxazol-3-yl)methyl)carbamoyl)spiro[bicyclo[2.2.1]heptane-7,1′-cyclopropane]-3-carboxylate]hydrochloride]	79.4 nM
